Columns and labels:
[1] = conclusions of several clinical assays; cited from earlier work
[2] = Mice weight under high-lipid diet, 3-week pharmaco-nutritional regimen; type: in vivo; details: after 3-week regimen; vs control regimen
Experimental: (§1) 100 male mice C57 Black 6/J aged 5 weeks (January, France) were accommodated in individual cages in the pet center of the INRA center, Theix, in thermoregulated premises (20-22° C.) and submitted to alternating 12 hour-cycles of light and darkness. After a week of acclimatization under a <<control regimen>> (D12450B, Research Diet, USA), 20 mice continued this regimen for 11 weeks. The other 80 mice were fed with a ? high-lipid regimen ? (HL) (D12451, Research Diet, USA) for 8 weeks. The total calorie intake, in percentages, provided for both the <> and HL regimens 20% proteins and respectively, 70% and 35% carbohydrates and 10% and 45% lipids. […] The mice weight was measured every 2 weeks.

[3] = Body composition measurement through Echo MRI (body fat, lean body mass); type: in vivo, mice; details: for Total body fat vs control regimen (Echo MRI): day 80, vs mice under control regimen; for Body fat: difference with high-lipid diet alone (HL), mice, 3 weeks
Experimental: as §1
Body fat and lean body mass of awake mice after 15 h fasting were quantified using nuclear magnetic resonance (Echo MRI, Houston, USA) at day 80 of the experiment.

[4] = Organ and tissue weights at sacrifice (peri-epididymal adipose tissue, leg muscles, liver); type: in vivo; details: vs mice under control regimen
Experimental: as §1
(§2) Prior to being sacrificed, mice after 15 h fasting were anesthetized through barbital intraperitoneal injection (1.5 μl/g). Blood was collected in EDTA-containing specimen collectors before being centrifuged (12000 rpm, 4 min, room temperature). Plasma was thereafter collected, distributed in aliquots and frozen in liquid nitrogen, then stored at −80° C. The adipose peri-epididymal tissue, liver and leg triceps muscle (gastrocnemius muscle), tibialis and quadriceps muscles were weighted, frozen in liquid nitrogen, then stored at −80° C.

[5] = Plasma dosages (non-esterified fatty acids, triglycerides, cholesterol, glucose); type: in vivo, mice; details: for Cholesterolemia compared to control mice: ANOVA p=0.01
Experimental: as §2, with “100 male mice C57 Black 6/J aged 5 weeks (January, France) were accommodated in individual cages in the pet center of the INRA center, Theix, in thermoregulated premises (20-22° C.) and submitted to alternating 12 hour-cycles of light and darkness. […] The mice weight was measured every 2 weeks. Prior” for “Prior”

[6] = Glucose tolerance measurement (ipGTT test); type: in vivo, mice; details: for Glucose tolerance: difference with high-lipid diet alone (HL), mice, 3 weeks; for Glucose tolerance compared to the control regimen: ipGTT, glucose 2 mg/g i.p., vs control
Experimental: as §1
(§3) After a 3-week pharmaco-nutritional regimen, measurements of the insulin sensitivity and glucose tolerance were conducted respectively on 10 mice of each group after a fasting night. Insulin sensitivity measurement: basal glycemia was evaluated using a glucose meter (Glucotouch, Lifescan, USA) on blood droplets collected from the tail. An insulin dose of 0.75 mU/g of weight was administered through intraperitoneal injection and glycemia was evaluated 15, 30, 45, 60 and 120 minutes post injection. Glucose tolerance measurement: a glucose dose (2 mg/g of weight) was administered through intraperitoneal injection. Glycemia was evaluated as for the insulin sensitivity test before and 15, 30, 60 and 120 minutes post injection.
Glucose tolerance measurement (ipGTT test): glucose tolerance is defined as the ability for a mouse to normalize its glycemia when injecting glucose. It is evaluated through the calculation of the area under the curve of the glycemia evolution after an injection of glucose.

[7] = Insulin sensitivity measurement (ipITT test); type: in vivo, mice; details: for Insulin sensitivity: difference with high-lipid diet alone (HL), mice, 3 weeks
Experimental: as §1, §3

[8] = taking statin in the long term; cited from earlier work
[9] = difference with high-lipid diet alone (HL), mice, 3 weeks

CC(C)c1nc(N(C)S(C)(=O)=O)nc(-c2ccc(F)cc2)c1/C=C/[C@@H](O)C[C@@H](O)CC(=O)O [rosuvastatin]
Development of type 2 diabetes [1]: would promote the development of type 2 diabetes

NC(=O)NCCC[C@H](N)C(=O)O [L-citrulline, L-Citrulline]
Mice weight as compared to the controls [2]: significantly higher | Total body fat vs control regimen (Echo MRI) [3]: +100% | Body fat [3]: −7% | Weight of peri-epididymal adipose tissue vs control regimen [4]: doubled | Plasma levels: Non esterified fatty acids [5, 9]: −24% | Plasma levels: Triglycerides [5, 9]: −15% | Plasma levels of non-esterified fatty acids compared to control mice ([5]; vs control mice): at a similar level compared to the control mice | Triglyceridemia compared to control mice ([5]; vs control mice): bring triglyceridemia back to the level of that obtained in control mice | Cholesterolemia compared to control mice ([5]; vs control mice): significant increase in cholesterolemia | Glucose tolerance [6]: +7% | Glucose tolerance compared to the control regimen [6]: significant reduction of glucose tolerance | Insulin sensitivity [7]: +5% | Insulin sensitivity compared to controls ([7]; ipITT, insulin 0.75 mU/g i.p., vs control): tend to be less sensitive to insulin

CC(C)c1c(C(=O)Nc2ccccc2)c(-c2ccccc2)c(-c2ccc(F)cc2)n1CC[C@@H](O)C[C@@H](O)CC(=O)O [Statin, Atorvastatin]
Mice weight as compared to the controls [2]: significantly higher | Total body fat vs control regimen (Echo MRI) [3]: +87% | Body fat [3]: −13% | Weight of peri-epididymal adipose tissue vs control regimen [4]: doubled | Triglyceridemia compared to control mice ([5]; vs control mice): bring triglyceridemia back to the level of that obtained in control mice | Cholesterolemia compared to control mice ([5]; vs control mice): significant increase in cholesterolemia | Glucose tolerance [6]: +11% | Glucose tolerance compared to the control regimen [6]: significant reduction of glucose tolerance | Insulin sensitivity [7]: +31% | Influence on body fat [8]: has not any positive influence on body fat | Development of type 2 diabetes [1]: would promote the development of type 2 diabetes

Source: patent US20150017203A1, “COMBINATION PRODUCT FOR TREATING EXCESS WEIGHT AND/OR FOR IMPROVING THE FIGURE” (INSTITUT NATIONAL DE LA RECHERCHE AGRONOMIQUE - INRA, priority 2012, published 2015)
